Test results reported in patent US4310682A, “Halo-salicylanilide” (priority 1979, dated 1982).

What was measured:
Format in all cases: cell-based
[1] = system: Escherichia coli NIHJ JC-2; experiment: MIC, agar medium containing the compound; details: bacterium No. 1, 37° C., 4 hours
Experimental: (§1) In order to test antifungal and bactericidal activity of halo-salicylanilide obtained in above mentioned Examples, following bacteria and fungi are employed.
No. 1 Escherichia coli NIHJ JC-2
(§2) Bacteria No. 1 to No. 4 are respectively cultured in Hart Infusion bouillon medium at 37° C. for 20 hours and resulting medium liquids are employed for said test. Fungi No. 5 to No. 7 are respectively cultured in Sabouraud agar medium and 10^6 cell/ml of cell dispersing liquids obtained from said medium are employed for said test.

[2] = system: Pseudomonas aeruqinosa NC-5; experiment: MIC, agar medium containing the compound; details: bacterium No. 2, 37° C., 4 hours
Experimental: as §1
No. 2 Pseudomonas aeruqinosa NC-5
as §2

[3] = system: Staphylococcus aureus FDA-209-P; experiment: MIC, agar medium containing the compound; details: bacterium No. 3, 37° C., 4 hours
Experimental: as §1
No. 3 Staphylococcus aureus FDA-209-P
as §2

[4] = system: Bacillus subtilis PCI-219; experiment: MIC, agar medium containing the compound; details: bacterium No. 4, 37° C., 4 hours
Experimental: as §1
No. 4 Bacillus subtilis PCI-219
as §2

[5] = system: Candida albicans ATCC 10259; experiment: MIC, Sabouraud agar medium containing the compound; details: fungus No. 5, 20° C., 14 days
Experimental: as §1
No. 5 Candida albicans ATCC 10259
as §2

[6] = system: Trichophyton rubrum IFO 9185; experiment: MIC, Sabouraud agar medium containing the compound; details: fungus No. 7, 20° C., 14 days
Experimental: as §1
No. 7 Trichophyton rubrum IFO 9185
as §2

[7] = system: Aspergillus flavus IFO 8558; experiment: MIC, Sabouraud agar medium containing the compound; details: fungus No. 6, 20° C., 14 days
Experimental: as §1
No. 6 Aspergillus flavus IFO 8558
as §2

“5-bromo-2'-methyl-4'-acetylsalicylanilide [compound 11]” was tested, and the “MIC (Minimum Inhibitory Concentration)” value [1] was over 100, the “MIC (Minimum Inhibitory Concentration)” value [2] was over 100 and the “MIC (Minimum Inhibitory Concentration)” value [3] was 0.2. For the same compound, the “MIC (Minimum Inhibitory Concentration)” value [4] was 0.4, the “MIC (Minimum Inhibitory Concentration)” value [5] was 100 and the “MIC (Minimum Inhibitory Concentration)” value [6] was 0.8.
“5-chloro-2'-methyl-4'-bromo chloro salicylanilide [compound 7]” was tested, and the “MIC (Minimum Inhibitory Concentration)” value [1] was over 100, the “MIC (Minimum Inhibitory Concentration)” value [2] was over 100 and the “MIC (Minimum Inhibitory Concentration)” value [3] was 0.8. For the same compound, the “MIC (Minimum Inhibitory Concentration)” value [4] was 0.8, the “MIC (Minimum Inhibitory Concentration)” value [5] was 100 and the “MIC (Minimum Inhibitory Concentration)” value [6] was 25.
`O=C(Nc1ccc(Cl)cc1)c1cc(Br)ccc1O` [Contrast No. 1, reference compound] was tested, and the “MIC (Minimum Inhibitory Concentration)” value [1] was over 100, the “MIC (Minimum Inhibitory Concentration)” value [2] was over 100 and the “MIC (Minimum Inhibitory Concentration)” value [5] was over 100. The “MIC (Minimum Inhibitory Concentration)” value [7] was over 100 and the “MIC (Minimum Inhibitory Concentration)” value [6] was 50.
`C=CCCCCCCCCC(=O)O` [Contrast No. 3, undecylenic acid, reference compound] was tested, and the “MIC (Minimum Inhibitory Concentration)” value [1] was over 100, the “MIC (Minimum Inhibitory Concentration)” value [3] was over 100 and the “MIC (Minimum Inhibitory Concentration)” value [4] was over 100. The “MIC (Minimum Inhibitory Concentration)” value [7] was 50 and the “MIC (Minimum Inhibitory Concentration)” value [6] was 50.
In the case of `COC1=CC(=O)C[C@@H](C)[C@]12Oc1c(Cl)c(OC)cc(OC)c1C2=O` [Contrast No. 4, griseo fulvin, reference compound], the “MIC (Minimum Inhibitory Concentration)” value [1] is reported as over 100, the “MIC (Minimum Inhibitory Concentration)” value [3] is reported as over 100 and the “MIC (Minimum Inhibitory Concentration)” value [4] is reported as over 100. For the same compound, the “MIC (Minimum Inhibitory Concentration)” value [7] was 25 and the “MIC (Minimum Inhibitory Concentration)” value [6] was 25.
For `Cc1cc(Cl)ccc1NC(=O)c1cc(Br)ccc1O` [compound 1, 5-bromo-2'-methyl-4'-chloro salicylanilide], the “MIC (Minimum Inhibitory Concentration)” value [1] was over 100, the “MIC (Minimum Inhibitory Concentration)” value [2] was over 100 and the “MIC (Minimum Inhibitory Concentration)” value [3] was 0.8. The “MIC (Minimum Inhibitory Concentration)” value [4] was 0.8, the “MIC (Minimum Inhibitory Concentration)” value [5] was 50 and the “MIC (Minimum Inhibitory Concentration)” value [7] was 50. The “MIC (Minimum Inhibitory Concentration)” value [6] was 50.
With `Cc1cc(Br)ccc1NC(=O)c1cc(Cl)ccc1O` [compound 2, 5-chloro-2'-methyl-4'-bromo salicyl anilide] the “MIC (Minimum Inhibitory Concentration)” value [1] was over 100, the “MIC (Minimum Inhibitory Concentration)” value [2] was over 100 and the “MIC (Minimum Inhibitory Concentration)” value [3] was 0.8. The “MIC (Minimum Inhibitory Concentration)” value [4] was 0.8, the “MIC (Minimum Inhibitory Concentration)” value [5] was 50 and the “MIC (Minimum Inhibitory Concentration)” value [7] was 50. For the same compound, the “MIC (Minimum Inhibitory Concentration)” value [6] was 50.
`CC(=O)Oc1ccc(Cl)cc1C(=O)Nc1ccc(Cl)cc1C` [compound 4, 5-chloro-2'-methyl-4' chloro-acetyl salcylanilide] was tested, and the “MIC (Minimum Inhibitory Concentration)” value [1] was over 100, the “MIC (Minimum Inhibitory Concentration)” value [2] was over 100 and the “MIC (Minimum Inhibitory Concentration)” value [3] was 0.1. For the same compound, the “MIC (Minimum Inhibitory Concentration)” value [4] was 0.2, the “MIC (Minimum Inhibitory Concentration)” value [5] was 100 and the “MIC (Minimum Inhibitory Concentration)” value [6] was 0.2.
With `CC(=O)Oc1ccc(Cl)cc1C(=O)Nc1ccc(Br)cc1C` [compound 8, 5-chloro-2'-methyl-4'-bromo acetylsalicylanilide] the “MIC (Minimum Inhibitory Concentration)” value [1] was over 100, the “MIC (Minimum Inhibitory Concentration)” value [2] was over 100 and the “MIC (Minimum Inhibitory Concentration)” value [3] was 0.8. For the same compound, the “MIC (Minimum Inhibitory Concentration)” value [4] was 0.8, the “MIC (Minimum Inhibitory Concentration)” value [5] was 100 and the “MIC (Minimum Inhibitory Concentration)” value [6] was under 0.8.
For `CC(=O)Oc1ccc(Br)cc1C(=O)Nc1ccc(Cl)cc1C` [compound 9, 5-bromo-2'-methyl-4'-chloro acetylsalicylanilide], the “MIC (Minimum Inhibitory Concentration)” value [1] was over 100, the “MIC (Minimum Inhibitory Concentration)” value [2] was over 100 and the “MIC (Minimum Inhibitory Concentration)” value [3] was 0.8. The “MIC (Minimum Inhibitory Concentration)” value [4] was 0.8, the “MIC (Minimum Inhibitory Concentration)” value [5] was 100 and the “MIC (Minimum Inhibitory Concentration)” value [6] was 25.
`Cc1cc(Br)ccc1NC(=O)c1cc(Br)ccc1O` [compound 10, 5-bromo-2'-methyl-4'-bromo salicylanilide] was tested, and the “MIC (Minimum Inhibitory Concentration)” value [1] was over 100, the “MIC (Minimum Inhibitory Concentration)” value [2] was over 100 and the “MIC (Minimum Inhibitory Concentration)” value [3] was 0.2. The “MIC (Minimum Inhibitory Concentration)” value [4] was 0.4, the “MIC (Minimum Inhibitory Concentration)” value [5] was 100 and the “MIC (Minimum Inhibitory Concentration)” value [6] was 0.8.
For `CC(=O)Oc1ccc(I)cc1C(=O)Nc1ccc(Cl)cc1C` [compound 12, 5-iodo-2'-methyl-4'-chloro acetylsalicylanilide], the “MIC (Minimum Inhibitory Concentration)” value [1] was over 100, the “MIC (Minimum Inhibitory Concentration)” value [2] was 100 and the “MIC (Minimum Inhibitory Concentration)” value [3] was 0.8. For the same compound, the “MIC (Minimum Inhibitory Concentration)” value [4] was 0.8, the “MIC (Minimum Inhibitory Concentration)” value [5] was 100 and the “MIC (Minimum Inhibitory Concentration)” value [6] was 0.8.
In the case of `Cc1cc(Cl)ccc1NC(=O)c1cc(F)ccc1O` [compound 14, 5-fluoro-2'-methyl-4'-chloro salicylanilide], the “MIC (Minimum Inhibitory Concentration)” value [1] is reported as over 100, the “MIC (Minimum Inhibitory Concentration)” value [2] is reported as 100 and the “MIC (Minimum Inhibitory Concentration)” value [3] is reported as 0.4. The “MIC (Minimum Inhibitory Concentration)” value [4] was 0.4, the “MIC (Minimum Inhibitory Concentration)” value [5] was 100 and the “MIC (Minimum Inhibitory Concentration)” value [6] was under 0.8.
For `CC(=O)Oc1ccc(F)cc1C(=O)Nc1ccc(Cl)cc1C` [compound 15, 5-fluoro-2'-methyl-4'-chloro acetylsalicylanilide], the “MIC (Minimum Inhibitory Concentration)” value [1] was over 100, the “MIC (Minimum Inhibitory Concentration)” value [2] was 100 and the “MIC (Minimum Inhibitory Concentration)” value [3] was 0.4. For the same compound, the “MIC (Minimum Inhibitory Concentration)” value [4] was 0.4, the “MIC (Minimum Inhibitory Concentration)” value [5] was 100 and the “MIC (Minimum Inhibitory Concentration)” value [6] was under 0.8.
`Cc1cc(Br)ccc1NC(=O)c1cc(F)ccc1O` [compound 16, 5-fluoro-2'-methyl-4'-bromo salicylanilide] was tested, and the “MIC (Minimum Inhibitory Concentration)” value [1] was over 100, the “MIC (Minimum Inhibitory Concentration)” value [2] was 100 and the “MIC (Minimum Inhibitory Concentration)” value [3] was 0.4. The “MIC (Minimum Inhibitory Concentration)” value [4] was 0.4, the “MIC (Minimum Inhibitory Concentration)” value [5] was 100 and the “MIC (Minimum Inhibitory Concentration)” value [6] was under 0.8.
With `CC(=O)Oc1ccc(F)cc1C(=O)Nc1ccc(Br)cc1C` [compound 17, 5-fluoro-2'-methyl-4'-bromo acetylsalicylanilide] the “MIC (Minimum Inhibitory Concentration)” value [1] was over 100, the “MIC (Minimum Inhibitory Concentration)” value [2] was 100 and the “MIC (Minimum Inhibitory Concentration)” value [3] was 0.4. The “MIC (Minimum Inhibitory Concentration)” value [4] was 0.4, the “MIC (Minimum Inhibitory Concentration)” value [5] was 100 and the “MIC (Minimum Inhibitory Concentration)” value [6] was under 0.8.
`Cc1cc(I)ccc1NC(=O)c1cc(F)ccc1O` [compound 18, 5-fluoro-2'-methyl-4'-iodo salicylanilide] was tested, and the “MIC (Minimum Inhibitory Concentration)” value [1] was over 100, the “MIC (Minimum Inhibitory Concentration)” value [2] was 100 and the “MIC (Minimum Inhibitory Concentration)” value [3] was 0.4. For the same compound, the “MIC (Minimum Inhibitory Concentration)” value [4] was 0.4, the “MIC (Minimum Inhibitory Concentration)” value [5] was 100 and the “MIC (Minimum Inhibitory Concentration)” value [6] was under 0.8.
In the case of `CC(=O)Oc1ccc(F)cc1C(=O)Nc1ccc(I)cc1C` [compound 19, 5-fluoro-2'-methyl-4'-iodo acetylsalicylanilide], the “MIC (Minimum Inhibitory Concentration)” value [1] is reported as over 100, the “MIC (Minimum Inhibitory Concentration)” value [2] is reported as 100 and the “MIC (Minimum Inhibitory Concentration)” value [3] is reported as 0.4. The “MIC (Minimum Inhibitory Concentration)” value [4] was 0.4, the “MIC (Minimum Inhibitory Concentration)” value [5] was 100 and the “MIC (Minimum Inhibitory Concentration)” value [6] was under 0.8.
